Results: patent publication US20240270762A1, “PENICILLIN-BINDING PROTEIN INHIBITORS” (priority 2021, published 2024)
≈ marks a conversion by molar mass, not a printed value.

Key:
N. gonorrhoeae FA1090 = assay: Liquid broth MIC in Fastidious broth; details: Neisseria gonorrhoeae, FA1090, read-out: Minimum Inhibitory Concentration, FA 1090
N. gonorrhoeae WHO G = assay: Liquid broth MIC in Fastidious broth; details: Neisseria gonorrhoeae, read-out: Minimum Inhibitory Concentration, WHO G
[1] = target: T1, PBP1a from Acinetobacter baumannii (ATCC 19606) (Acinetobacter baumannii, UniProt A0ABX6CK30); assay: Bocillin-FL fluorescence polarization competition binding, A. baumannii PBP1a; details: fluorescence polarization competition binding assay using Bocillin-FL; read-out: A. baumannii PBP1a Potency
T1 sequence (A0ABX6CK30 1-851): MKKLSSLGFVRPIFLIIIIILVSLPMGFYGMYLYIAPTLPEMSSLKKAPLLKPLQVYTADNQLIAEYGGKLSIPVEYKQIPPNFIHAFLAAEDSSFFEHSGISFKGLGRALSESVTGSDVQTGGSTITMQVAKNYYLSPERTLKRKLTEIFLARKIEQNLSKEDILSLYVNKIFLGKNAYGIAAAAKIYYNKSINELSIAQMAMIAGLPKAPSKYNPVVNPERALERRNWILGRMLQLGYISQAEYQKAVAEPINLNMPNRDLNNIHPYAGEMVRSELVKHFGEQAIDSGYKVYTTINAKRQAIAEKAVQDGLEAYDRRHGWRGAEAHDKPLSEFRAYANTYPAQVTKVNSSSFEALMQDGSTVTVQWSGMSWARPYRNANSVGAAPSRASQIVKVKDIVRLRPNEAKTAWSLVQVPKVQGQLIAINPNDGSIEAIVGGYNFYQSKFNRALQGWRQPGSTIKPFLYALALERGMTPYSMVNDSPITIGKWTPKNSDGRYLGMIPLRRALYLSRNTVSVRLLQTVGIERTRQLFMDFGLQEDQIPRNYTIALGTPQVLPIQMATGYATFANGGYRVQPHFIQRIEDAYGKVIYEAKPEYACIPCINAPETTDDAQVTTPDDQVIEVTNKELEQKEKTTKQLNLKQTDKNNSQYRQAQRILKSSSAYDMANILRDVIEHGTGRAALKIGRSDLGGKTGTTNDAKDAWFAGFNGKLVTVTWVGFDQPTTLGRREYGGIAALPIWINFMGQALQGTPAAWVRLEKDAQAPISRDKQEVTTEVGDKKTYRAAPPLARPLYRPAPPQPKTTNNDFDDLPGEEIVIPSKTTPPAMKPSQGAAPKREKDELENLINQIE
Procedure, shortened: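 Purified PBP was preincubated with inhibitor (E. coli PBP3 1.5 μM, 30 min; P. aeruginosa PBP3 0.75 μM, A. baumannii PBP3 0.2 μM and PBP1a 1 μM, 15 min), then Bocillin-FL (0.1 μM; 0.05 μM for PBP1a) added and FP read up to 60 min. EC50 = 50% loss of bound probe.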

P. aeruginosa ATCC 27853 = assay: microbe, parasite or virus in culture; assay type: cell-based; details: Pseudomonas aeruginosa, ATCC27853, read-out: Minimum inhibitory concentration, P. aeruginosa ATCC 27853
N. gonorrhoeae WHO Z = assay: Liquid broth MIC in Fastidious broth; details: Neisseria gonorrhoeae, read-out: Minimum Inhibitory Concentration, WHO Z

| SMILES | MIC (N. gonorrhoeae FA1090) [µg/mL] | MIC (N. gonorrhoeae WHO G) [µg/mL] | IC50 [1] [µM] | MIC (P. aeruginosa ATCC 27853) [µg/mL] | MIC (N. gonorrhoeae WHO Z) [µg/mL] |
| --- | --- | --- | --- | --- | --- |
| O=C(NCCCN1CCN(C(=O)N[C@@H](C(=O)N[C@H]2Cc3ccc(F)c(C(=O)O)c3OB2O)c2cc(F)c(O)c(O)c2Cl)C1=O)Nc1cccc(O)c1 [Example 258, (R)-3-((R)-2-(2-chloro-5-fluoro-3,4-dihydroxyphenyl)-2-(3-(3-(3-(3-hydroxyphenyl)ureido)propyl)-2-oxoimidazolidine-1-carboxamido)acetamido)-7-fluoro-2-hydroxy-3,4-dihydro-2H-benzo[e][1,2]oxaborinine-8-carboxylic acid] | 1 to 2 (≈ 1.34 to 2.68 µM) | 4 to 8 (≈ 5.36 to 10.7 µM) | > 250 | 2 to 4 (≈ 2.68 to 5.36 µM) | 4 to 8 (≈ 5.36 to 10.7 µM) |
| O=C(NCCCN1CCN(C(=O)NC(C(=O)N[C@H]2Cc3ccc(F)c(C(=O)O)c3OB2O)c2cc(F)c(O)c(O)c2Cl)C1=O)Nc1cccnc1 (stereo partly drawn) [Example 259, (3R)-3-(2-(2-chloro-5-fluoro-3,4-dihydroxyphenyl)-2-(2-oxo-3-(3-(3-(pyridin-3-yl)ureido)propyl)imidazolidine-1-carboxamido)acetamido)-7-fluoro-2-hydroxy-3,4-dihydro-2H-benzo[e][1,2]oxaborinine-8-carboxylic acid] | 1 to 2 (≈ 1.37 to 2.73 µM) | 16 to 32 (≈ 21.9 to 43.7 µM) | > 250 | < 1 | 16 to 32 (≈ 21.9 to 43.7 µM) |
| O=C(NCCS(=O)(=O)N1CCN(C(=O)NC(C(=O)N[C@H]2Cc3ccc(F)c(C(=O)O)c3OB2O)c2cc(F)c(O)c(O)c2Cl)C1=O)c1ccccc1 (stereo partly drawn) [Example 260, (3R)-3-(2-(3-((2-benzamidoethyl)sulfonyl)-2-oxoimidazolidine-1-carboxamido)-2-(2-chloro-5-fluoro-3,4-dihydroxyphenyl)acetamido)-7-fluoro-2-hydroxy-3,4-dihydro-2H-benzo[e][1,2]oxaborinine-8-carboxylic acid] | 4 to 8 (≈ 5.22 to 10.4 µM) | 16 to 32 (≈ 20.9 to 41.8 µM) | > 250 | 2 to 4 (≈ 2.61 to 5.22 µM) | 16 to 32 (≈ 20.9 to 41.8 µM) |
| O=C(NCCS(=O)(=O)N1CCN(C(=O)NC(C(=O)N[C@H]2Cc3ccc(F)c(C(=O)O)c3OB2O)c2cc(F)c(O)c(O)c2Cl)C1=O)c1cccc(O)c1 (stereo partly drawn) [Example 261, (3R)-3-(2-(2-chloro-5-fluoro-3,4-dihydroxyphenyl)-2-(3-((2-(3-hydroxybenzamido)ethyl)sulfonyl)-2-oxoimidazolidine-1-carboxamido)acetamido)-7-fluoro-2-hydroxy-3,4-dihydro-2H-benzo[e][1,2]oxaborinine-8-carboxylic acid] | 4 to 8 (≈ 5.12 to 10.2 µM) | 16 to 32 (≈ 20.5 to 40.9 µM) | > 250 | 2 to 4 (≈ 2.56 to 5.12 µM) | 4 to 8 (≈ 5.12 to 10.2 µM) |
| O=C(NCCS(=O)(=O)N1CCN(C(=O)NC(C(=O)N[C@H]2Cc3ccc(F)c(C(=O)O)c3OB2O)c2cc(F)c(O)c(O)c2Cl)C1=O)c1cccnc1 (stereo partly drawn) [Example 262, (3R)-3-(2-(2-chloro-5-fluoro-3,4-dihydroxyphenyl)-2-(3-((2-(nicotinamido)ethyl)sulfonyl)-2-oxoimidazolidine-1-carboxamido)acetamido)-7-fluoro-2-hydroxy-3,4-dihydro-2H-benzo[e][1,2]oxaborinine-8-carboxylic acid] | 4 to 8 (≈ 5.22 to 10.4 µM) | 16 to 32 (≈ 20.9 to 41.7 µM) | > 250 | < 1 | 16 to 32 (≈ 20.9 to 41.7 µM) |
| O=C(NCCS(=O)(=O)N1CCN(C(=O)N[C@H](C(=O)N[C@H]2Cc3ccc(F)c(C(=O)O)c3OB2O)c2cc(F)c(O)c(O)c2Cl)C1=O)c1nccs1 [Example 263, (R)-3-((S)-2-(2-chloro-5-fluoro-3,4-dihydroxyphenyl)-2-(2-oxo-3-((2-(thiazole-2-carboxamido)ethyl)sulfonyl)imidazolidine-1-carboxamido)acetamido)-7-fluoro-2-hydroxy-3,4-dihydro-2H-benzo[e][1,2]oxaborinine-8-carboxylic acid] | > 64 | > 64 | > 250 | 32 to 64 (≈ 41.4 to 82.8 µM) | > 64 |
| O=C(NCCS(=O)(=O)N1CCN(C(=O)N[C@@H](C(=O)N[C@H]2Cc3ccc(F)c(C(=O)O)c3OB2O)c2cc(F)c(O)c(O)c2Cl)C1=O)c1nccs1 [Example 264, (R)-3-((R)-2-(2-chloro-5-fluoro-3,4-dihydroxyphenyl)-2-(2-oxo-3-((2-(thiazole-2-carboxamido)ethyl)sulfonyl)imidazolidine-1-carboxamido)acetamido)-7-fluoro-2-hydroxy-3,4-dihydro-2H-benzo[e][1,2]oxaborinine-8-carboxylic acid] | 1 to 2 (≈ 1.29 to 2.59 µM) | 16 to 32 (≈ 20.7 to 41.4 µM) | > 250 | < 1 | 4 to 8 (≈ 5.18 to 10.4 µM) |
| O=C(O)c1c(F)ccc2c1OB(O)[C@@H](NC(=O)C(NC(=O)N1CCN(S(=O)(=O)CCNC(=O)[C@@H]3CCCN3)C1=O)c1cc(F)c(O)c(O)c1Cl)C2 (stereo partly drawn) [Example 265, (3R)-3-(2-(2-chloro-5-fluoro-3,4-dihydroxyphenyl)-2-(2-oxo-3-((2-((S)-pyrrolidine-2-carboxamido)ethyl)sulfonyl)imidazolidine-1-carboxamido)acetamido)-7-fluoro-2-hydroxy-3,4-dihydro-2H-benzo[e][1,2]oxaborinine-8-carboxylic acid] | 4 to 8 (≈ 5.27 to 10.5 µM) | 16 to 32 (≈ 21.1 to 42.2 µM) | > 250 | 2 to 4 (≈ 2.64 to 5.27 µM) | 4 to 8 (≈ 5.27 to 10.5 µM) |
| O=C(NCCS(=O)(=O)N1CCN(C(=O)NC(C(=O)N[C@H]2Cc3ccc(F)c(C(=O)O)c3OB2O)c2cc(F)c(O)c(O)c2Cl)C1=O)Nc1cccc(O)c1 (stereo partly drawn) [Example 266, (3R)-3-(2-(2-chloro-5-fluoro-3,4-dihydroxyphenyl)-2-(3-((2-(3-(3-hydroxyphenyl)ureido)ethyl)sulfonyl)-2-oxoimidazolidine-1-carboxamido)acetamido)-7-fluoro-2-hydroxy-3,4-dihydro-2H-benzo[e][1,2]oxaborinine-8-carboxylic acid] | 1 to 2 (≈ 1.25 to 2.51 µM) | 16 to 32 (≈ 20.1 to 40.2 µM) | > 250 | 2 to 4 (≈ 2.51 to 5.02 µM) | 4 to 8 (≈ 5.02 to 10 µM) |
| O=C(NCCS(=O)(=O)N1CCN(C(=O)N[C@@H](C(=O)N[C@H]2Cc3ccc(F)c(C(=O)O)c3OB2O)c2cc(F)c(O)c(O)c2Cl)C1=O)Nc1cccnc1 [Example 267, (R)-3-((R)-2-(2-chloro-5-fluoro-3,4-dihydroxyphenyl)-2-(2-oxo-3-((2-(3-(pyridin-3-yl)ureido)ethyl)sulfonyl)imidazolidine-1-carboxamido)acetamido)-7-fluoro-2-hydroxy-3,4-dihydro-2H-benzo[e][1,2]oxaborinine-8-carboxylic acid] | 1 to 2 (≈ 1.28 to 2.56 µM) | 16 to 32 (≈ 20.5 to 40.9 µM) | > 250 | 2 to 4 (≈ 2.56 to 5.12 µM) | 4 to 8 (≈ 5.12 to 10.2 µM) |
| O=C(NCCCS(=O)(=O)N1CCN(C(=O)NC(C(=O)N[C@H]2Cc3ccc(F)c(C(=O)O)c3OB2O)c2cc(F)c(O)c(O)c2Cl)C1=O)c1ccccc1 (stereo partly drawn) [Example 268, (3R)-3-(2-(3-((3-benzamidopropyl)sulfonyl)-2-oxoimidazolidine-1-carboxamido)-2-(2-chloro-5-fluoro-3,4-dihydroxyphenyl)acetamido)-7-fluoro-2-hydroxy-3,4-dihydro-2H-benzo[e][1,2]oxaborinine-8-carboxylic acid] | 4 to 8 (≈ 5.13 to 10.3 µM) | 16 to 32 (≈ 20.5 to 41 µM) | > 250 | 8 to 16 (≈ 10.3 to 20.5 µM) | 16 to 32 (≈ 20.5 to 41 µM) |
| O=C(NCCCS(=O)(=O)N1CCN(C(=O)NC(C(=O)N[C@H]2Cc3ccc(F)c(C(=O)O)c3OB2O)c2cc(F)c(O)c(O)c2Cl)C1=O)c1ccc(O)cc1 (stereo partly drawn) [Example 269, (3R)-3-(2-(2-chloro-5-fluoro-3,4-dihydroxyphenyl)-2-(3-((3-(4-hydroxybenzamido)propyl)sulfonyl)-2-oxoimidazolidine-1-carboxamido)acetamido)-7-fluoro-2-hydroxy-3,4-dihydro-2H-benzo[e][1,2]oxaborinine-8-carboxylic acid] | 4 to 8 (≈ 5.03 to 10.1 µM) | 16 to 32 (≈ 20.1 to 40.2 µM) | > 250 | 2 to 4 (≈ 2.51 to 5.03 µM) | 16 to 32 (≈ 20.1 to 40.2 µM) |
